Series [1] concerns human lung cancer cells (A549). The experiment in a line: MTT antiproliferative assay, A549. It counts as cell-based. How it is done:
(§1) Human lung cancer cell (A549,), human umbilical vein endothelial cells (HUVECs,), human colon cancer cell lines (HCT-15), human breast cancer cells (MCF-7), human liver cancer cells (HepG2), human pancreatic cancer cells (BxPC-3), and human hepatic cell line (L-02) were obtained from the Sichuan University. A549, HUVECs, and L-02 were cultured in DMEM medium (high glucose, HyClone, GE Healthcare, Sydney, Australia). Human colon cancer cell lines HCT-15, human pancreatic cancer cells […] BxPC-3 were cultured in RPMI-1640. Human breast cancer cells MCF-7 and human liver cancer cells HepG2 were cultured in MEM medium. All the mediums, including 10% fetal bovine serum (FBS, HyClone, GE Healthcare, Sydney, Australia) and 1% ampicillin/streptomycin, were used to culture the above cells at 37 °C in a humidified atmosphere (5% CO2 and 95% air).
(§2) The antiproliferative activity of the title compounds was determined using the MTT (3-(4,5-dimethylthiazol-2-yl)-2,5-diphenyltetrazolium bromide, Sigma-Aldrich, Saint Louis, MO, USA) assay on different cells. Cells lines were seeded into 96-well plates at a density of 2000 to 6000 cells/well. DMSO was used to dissolve the test compounds, and TET was used as a positive control. After 24 h, the test compounds were added at different concentrations (0.625, 1.25, 2.5, 5, 10, and 20 μM) and incubated at 37 °C for 72 h. MTT was added to each well at a final concentration of 0.5 mg/mL and incubated at 37 °C for 4 h. Then, 150 μL of DMSO was added to each well to dissolve the formazan crystals. The absorbance was measured at 570 nm by a microplate reader (ELX800UV, Bio-Tek, Windoski, VT, USA). All measurements were repeated at least three times under the same conditions. Graphpad Prism 8.0 was used to calculate the IC50 values.

The subject of series [2] is human umbilical vein endothelial cells (HUVEC). Nature of the series: MTT antiproliferative assay, HUVEC. It counts as cell-based. To be noted: 72 h. The method, then:
as §1, §2
In general terms: Formazan colour is commonly taken as a measure of viable cells.

Another series concerns HUVECs. The experiment in a line: Wound healing (migration) assay, HUVEC. It counts as cell-based, human. The settings on record: 10 μM, 24 h, control 85%. How it is done:
(§3) HCT-15 cells or HUVECs were seeded in six-well culture plates and allowed to grow to 80–90% confluence. Subsequently, a cell-free line was manually created by scratching the confluent cell monolayers with a 200 μL sterile pipette tip, and the detached cells were washed with PBS. The cells were then incubated with 10% FBS and different concentrations of 16 (0.625, 1.25, 2.5, 5, and 10 μM). Then, 24 h later, images of the same location were obtained using a microscope (Nikon ECLIPSE TE2000-U, Tokyo, Japan). Each experiment was carried out at least three times.

Series [3] has as its system HCT-15 cells. The experiment in a line: Cell cycle analysis by flow cytometry. It counts as cell-based, human. To be noted: HCT-15, 1.25, 2.5, and 5 μM, 24 h. The method, then:
HCT-15 cells were cultured in six-well plates overnight at 37 °C. The cells were treated with 1.25, 2.5, 5 μM of 16 or DMSO and incubated for 24 h. Afterwards, the cells were harvested, and 70% ice cold ethanol was used to fix cells at 4 °C. Subsequently, the cells were centrifuged to remove the fixative solution, washed twice with PBS, and exposed to 500 μL of PI/RNase working solution (Keygen Biotech, Nanjing, China) at 4 °C for 30 min in the dark. The cell cycle distribution was analyzed by flow cytometry.
A general note: A flow cytometer gives signals particle by particle.

Series [4] can be described thus: Live/dead FDA/PI double staining, HUVEC. The settings on record: human, HUVEC cells, read-out: Viable cell percentage. It counts as cell-based. The method, then:
HCT-15 or HUVEC cells were cultured in six-well plates for 24 h. The cells were washed with PBS and incubated with medium containing 0.625, 1.25, 2.5, 5, and 10 μM of 16 for 48 h. Afterwards, the medium was replaced, and the cells were washed twice with PBS, resuspended in the solution containing 100 μL FDA (0.02 mg/mL, Sigma, St. Louis, MO, USA) and 30 μL PI (0.02 mg/mL, Sigma, St. Louis, MO, USA), and treated in the dark at room temperature for 10 min. The cells were imaged with a fluorescence microscope (Nikon ECLIPSE TE2000-U, Tokyo, Japan).

For series [5], the system named is human colon cancer cells (HCT-15). Nature of the series: MTT antiproliferative assay, HCT-15. It counts as cell-based. The method, then: as §1, §2
The test system of series [6] is microtubule-associated protein 1 light chain 3 (LC3). The experiment in a line: Western blot, LC3-II/LC3-I in HCT-15 cells. The settings on record: HCT-15, 0.625, 1.25, 2.5, and 5 μM, p < 0.05. It counts as cell-based, human. How it is done: The protein levels in HCT-15 cells were evaluated via Western blot analysis. The cells were cultured in dishes (10^7 cells per dish) and incubated overnight at 37 °C, 0.625, 1.25, 2.5, and 5 μM of 16 was added in triplicate after 24 h of incubation. Then, the cells were harvested and lysed in Laemmli buffer (glycerol, 1M TRIS pH 6.8, 1% SDS, MQ H2O and 20% β-mercaptoethanol). The samples were boiled for 5 min at 95 °C, and the protein content was determined using a BCA kit. Equal amounts of 30 μg of sample were placed on a Tris/HCl gel and separated by SDS-PAGE electrophoresis. Then, the samples were transferred to a PVDF membrane (Milibo, Co., Ltd., Billyka, MA, USA) and blocked with 5% skimmed milk powder for 2 h. Diluted primary antibodies Bcl-2 (1:3000), Bax (1:10,000), caspase-3 (l:2000), p62 (1:1000), Beclin1 (1:1000), LC3 (1:2000), and β-actin (1:1000) were incubated overnight at 4 °C, followed by a horseradish peroxidase-conjugated goat anti-rabbit IgG secondary antibody (ProteinTech, China) for 2 h at room temperature. Then, immunoreactivity was developed with diaminobenzidine solution, and scanned and recorded by a gel imaging system (G:BOX Chemi XL1.4, Frederick, MD, USA).
(In general: Immunoblotting shows a protein as a band on a membrane.)

Series [7] deals with HCT-15 cells. The experiment in a line: Wound healing (migration) assay, HCT-15. It counts as cell-based, human. To be noted: 24 h, control approximately 46%. The method, then:
as §3

For series [8], the system named is HCT-15 cells. Nature of the series: Colony formation assay. It counts as cell-based, human. To be noted: HCT-15, 0.625 μM, 10 d. The method, then: HCT-15 cells were diluted in 2 mL of culture medium and plated in six-well plates at 37 °C in 5% CO2. After an overnight incubation, compound 16 (0.625, 1.25, 2.5, 5, and 10 μM) was added, and the cells were cultured for 10 d. Afterwards, the medium was replaced. The cells were washed by cold PBS and fixed with 4% paraformaldehyde. Finally, the cell colonies were stained with a 1% crystal violet solution for 20 min. The plates were recorded, and the colonies were counted digitally using ImageJ software with customized macros.

The subject of series [9] is human pancreatic cancer cells (BxPC-3). The experiment in a line: MTT antiproliferative assay, BxPC-3. It counts as cell-based. How it is done:
as §1, §2

In general, IC50 refers to the concentration at which inhibition is half-maximal. Higher therefore signals a need for much substance.

`COc1cc(NC(=O)[C@@H]2CCCN2)c2cc1Oc1ccc(cc1)C[C@H]1c3cc(c(OC)cc3CCN1C)Oc1c(OC)c(OC)cc3c1[C@H](C2)N(C)CC3` [Compound 16, 14-N-(L-proline)-tetrandrine]: the IC50 was 1.19 ± 0.01 µM in [1] (72 h); below 1.5 µM in series [1] (Homo sapiens, A549, 72 h); 1.48 ± 0.01 µM in series [2]; 0.57 ± 0.03 µM in series [5] (Homo sapiens, MTT, 72 h, HCT-15); 1.12 ± 0.1 µM in series [9] (72 h); below 1.5 µM in series [9] (Homo sapiens, BXPC-3, 72 h). The molecule also came in with a Migration rate in the series on HUVECs of 10.0%. For the same molecule, the “Effect on cell cycle redistribution” value with HCT-15 cells [3] is recorded as “no significant influence on cell cycle redistribution”. In addition, the viability at 48 h, 5 µM in series [4] (5 μM) was 1.9%. Further, the viability at 48 h, 10 µM in [4] (10 μM) is 0.1%. Further, in [5] (HCT-15 cells, vs TET (IC50 = 6.12 μM)), the “Improvement of antiproliferative activity compared with TET” value is on record as “higher than 10 fold”. Also, the “Ratio of LC3-II to LC3-I” value in series [6] was “increased”. Besides, the “Scratched area covered (migration rate)” value with HCT-15 cells [7] (HCT-15, 5 μM) came to 14.1%; in the series on HCT-15 cells [7] (HCT-15, 10 μM), 10.5%. Besides, the Colony formation result in the series on HCT-15 cells [8] was “very few colonies”.

Values taken from paper PMC9268013, “Design, Synthesis, and Biological Evaluation of N14-Amino Acid-Substituted Tetrandrine Derivatives as Potential Antitumor Agents against Human Colorectal Cancer” (Molecules, 2022).
